The results in this text go back to patent US20050181988A1, “Echinocandin cyclic peptide derivatives” (priority 2002, published 2005).

The test system of this experiment is Candida albicans FP-633. Description: In vitro antimicrobial activity: MICs in mouse serum by the microdilution method. It counts as cell-based. As for the experimental part:
In vitro antimicrobial activity of the object compound of Example 23, 46, 58 and 63 disclosed later was determined by MICS in mouse serum as described below.
The MICs in mouse serum were determined by the microdilution method using ICR mouse serum buffered with 20 mM HEPES buffer (pH 7.3) as a test medium. Inoculum suspension of 10^6 cells/ml were prepared by a hemocytometric procedure and diluted to obtain an inoculum size of approximately 1.0×10^3 cells/ml. Microplates were incubated at 37° C. for 24 hours in 5% CO2. The MICs was defined as the lowest concentrations at which no visible growth was observed.

Each structure is given as a SMILES string. Read-outs that look alike come from different tables or passages of the source. Where only a bound is given, the exact number is not on record here.

As for `C[C@@H](O)[C@@H]1NC(=O)[C@@H](NC(=O)c2ccc(-c3nnc(-c4ccc(N5CCN([C@H]6CC[C@@H](C)CC6)CC5)nc4)s3)cc2)C[C@@H](O)CNC(=O)[C@@H]2[C@@H](O)[C@@H](C)CN2C(=O)[C@H]([C@H](O)CCN)NC(=O)[C@H]([C@H](O)Cc2ccc(O)c(OCCN)c2)NC(=O)[C@@H]2C[C@@H](O)CN2C1=O` [Example 58], the MIC (FP633, microdilution in ICR mouse serum buffered with 20 mM HEPES (pH 7.3), inoculum approx. 1.0×10^3 cells/ml, 37° C., 24 hours, 5% CO2, lowest concentration with no visible growth, read-out: MIC (μg/ml), Candida albicans FP-633) was less than 0.2 µg/mL. On to `CCOCCOc1ccc(-c2ccc(-c3nnc(-c4ccc(C(=O)N[C@H]5C[C@@H](O)CNC(=O)[C@@H]6[C@@H](O)[C@@H](C)CN6C(=O)[C@H]([C@H](O)CCN)NC(=O)[C@H]([C@H](O)Cc6ccc(O)c(OCCCN)c6)NC(=O)[C@@H]6C[C@@H](O)CN6C(=O)[C@H]([C@@H](C)O)NC5=O)cc4)s3)cc2)cc1` [Example 46], for which, where the note is “FP633, 24 h, pH 7.3, read-out: MIC (μg/ml), Candida albicans FP-633”, the MIC was less than 0.2 µg/mL.
